Experimental data published in article PMC4601051, “Discovery of Indoline-2-carboxamide Derivatives as a New Class of Brain-Penetrant Inhibitors of Trypanosoma brucei” (Journal of Medicinal Chemistry, 2015).
“And” between values parts separate entries of the source, which are not always exact repeats. Equal values may be shown once.

Columns and labels:
[1] = system: bloodstream form T. brucei brucei; assay: T. b. brucei whole cell parasite (trypanosome growth) assay; type: cell-based, Trypanosoma brucei brucei
Description: This was conducted as previously described.[27] Cell culture plates were stamped with 1 μL of an appropriate stock concentration of test compound, followed by addition of 200 μL of trypanosome culture (HMI9-T, 10% FCS) to each well at a density of 2000 cells per well (except column 12 receiving media only). […] Potency was carried out using 10-point dose–response curves.

[2] = Microsomal intrinsic clearance (Clint), mouse; type: in vitro ADME; conditions: mouse liver microsomes, 0.5 μM compound
Description: Each test compound (0.5 μM) was incubated with pooled female CDI mouse liver microsomes, pooled male Sprague–Dawley rat microsomes, or pooled mixed gender human liver microsomes (Tebu-Bio, UK; 0.5 mg/mL 50 mM potassium phosphate buffer, pH 7.4) and the reaction started with addition of excess NADPH (8 mg/mL, 50 mM potassium phosphate buffer, pH 7.4). Immediately, at time zero, then at 3, 6, 9, 15, and 30 min, an aliquot (50 μL) of the incubation mixture was removed and mixed with acetonitrile (100 μL) to stop the reaction. Internal standard was added to all samples, and the samples were centrifuged at 1825g for 10 min to sediment precipitated protein. The plates were then sealed prior to UPLC/MS/MS analysis using a Quattro Premier XE (Waters Corporation, USA).
XLfit (IDBS, UK) was used to calculate the exponential decay and consequently the rate constant (k) from the ratio of peak area of test compound to internal standard at each time point.

For `CNC(=O)[C@H]1Cc2ccccc2N1C(=O)Cc1ccc(F)cc1` [Compound 47, (R)-1-(2-(4-Fluorophenyl)acetyl)-N-methylindoline-2-carboxamide], the Hill slope ([1]; T. brucei EC50 curve) was 2.8, the EC50 ([1]; Trypanosoma brucei, mean of two or more determinations, 69 h + 4 h resazurin, read-out: T. b. brucei EC50) was 50 nM and the “mouse microsomal intrinsic clearance” value [2] was 1.9 mL min^–1 g^–1 and 1.9/ND mL min^–1 g^–1.
